This is an account of results in patent US10407382B2, “EP4 agonists as therapeutic compounds” (ALLERGAN, INC., priority 2014, dated 2019).

For orientation: Ki means a measure of affinity in units of concentration, obtained from inhibition or displacement. A high value points to a looser hold on the target. A word on the EC50: it is the concentration giving half of the maximal effect. Higher therefore signals a need for much substance.

Assay [1] concerns the target T1, EP4 (Homo sapiens, UniProt P35408). Put plainly: Radioligand binding, EP4. The note with it: [3H]PGE2 competition. Details: expressed in transfected cells; membrane fraction. As for the experimental part: (§1) Data from running binding and activity studies on the compounds of the invention were carried out as described in U.S. Pat. No. 7,427,685, the contents of which are incorporated herein by reference.
(§2) Cells Stably Expressing EP1, EP2, EP4, and FP Receptors
(§3) HEK-293 cells stably expressing the human or feline FP receptor, or EP1, EP2, or EP4 receptors were washed with TME buffer, scraped from the bottom of the flasks, and homogenized for 30 sec using a Brinkman PT 10/35 polytron. TME buffer was added to achieve a final 40 ml volume in the centrifuge tubes (the composition of TME is 100 mM TRIS base, 20 mM MgCl2, […]; ION HCl is added to achieve a pH of 7.4).
(§4) The cell homogenate was centrifuged at 19000 rpm for 20 min at 4° C. using a Beckman Ti-60 rotor. The resultant pellet was resuspended in TME buffer to give a final 1 mg/ml protein concentration, as determined by Biorad assay. Radioligand binding competition assays vs. [^3H-]17-phenyl PGF2α (5 nM) were performed in a 100 μl volume for 60 min. Binding reactions were started by adding plasma membrane fraction. The reaction was terminated by the addition of 4 ml ice-cold TRIS-HCl buffer and rapid filtration through glass fiber GF/B filters using a Brandel cell harvester. The filters were washed 3 times with ice-cold buffer and oven dried for one hour.
(§5) [^3H-] PGE2 (specific activity 180 Ci mmol) was used as the radio ligand for EP receptors. [^3H] 17-phenyl PGF2α was employed for FP receptor binding studies. Binding studies employing EP1, EP2, EP4 and FP receptors were performed in duplicate in at least three separate experiments. A 200 μl assay volume was used. Incubations were for 60 min at 25° C. and were terminated by the addition of 4 ml of ice-cold 50 mM TRIS-HCl, followed by rapid filtration through Whatman GF/B filters and three additional 4 ml washes in a cell harvester (Brandel). Competition studies were performed using a final concentration of 5 nM [^3H]-PGE2, or 5 nM [^3H] 17-phenyl PGF2α and non-specific binding determined with 10^−5M of unlabeled PGE2, or 17-phenyl PGF2α, according to receptor subtype studied.

Assay [2] has as its target T1, EP4. In words: cAMP assay, EP4. It counts as cell-based. Details: expressed in transfected cells; host or cells: HEK-EBNA cells. The note with it: HEK-EBNA cells expressing EP4. As for the experimental part:
A 384-well drug plate was prepared to contain 6 test compounds, PGE2 and cAMP in 16 serial dilutions in triplicate, using a Biomek station. HEK-EBNA cells expressing a target PG receptor subtype (EP2 or EP4) were suspended in a stimulation buffer (HBSS, 0.1% BSA, 0.5 mM IBMX and 5 mM HEPES, pH 7.4) in a density of 10^4 cells/5 μL. The reaction was initiated by mixing 5 μL drug dilutions with 5 μL of HEK-EBNA cells in a well, carried out for 30 min at room temperature, and followed by the addition of 5 μL anti-cAMP acceptor beads in the control buffer with Tween-20 (25 mM NaCl, 0.03% Tween-20, 5 mM HEPES, pH 7.4). After 30 min in the dark at room temperature, the mixtures were incubated with 15 μL biotinylated-cAMP/strepavidin donor beads in Lysis/Detection buffer (0.1% BSA, 0.3% Tween-20 and 5 mM HEPES, pH 7.4) for 45 min at the room temperature. Fluorescence changes were read using a Fusion-alpha HT microplate reader.
(Cyclic AMP is a second messenger, typically raised through Gs and lowered through Gi signalling.)

The target of assay [3] is EP2 (Homo sapiens, UniProt P43116). In words: Ki competition binding, EP2. Set-up: expressed in transfected cells. The note with it: [3H]PGE2 competition; NA = no activity. As for the experimental part:
as §1
Competition binding experiments were performed in a medium containing Hank's balanced salt solution, Hepes 20 mM, pH 7.3, membranes (˜60 μg protein) or 2×10^5 cells from HEK 293 cells stably expressing human EP2 receptors, [^3H]PGE2 (10 nM) and various concentrations of test compounds in a total volume of 300 μl. Reaction mixtures were incubated at 23° C. for 60 min, and were filtered over Whatman GF IB filters under vacuum. Filters were washed three times with 5 ml ice-cold buffer containing 50 mM Tris/HCl (PH 7.3). Non-specific binding was estimated in the presence of excess unlabeled PGE2 (10 μM). Binding data fitted to the binding model for a single class of binding sites, using nonlinear regression analysis. IC50 values thus obtained were converted to Ki using the equation of Ki=(IC50/(1+[L]/KD) where [L] represents PGE2 concentration (10 nM) and KD the dissociation constant for [^3H]PGE2 at human EP2 receptors (40 nM).
as §2, §3, §4, §5

A value given as a limit tells only on which side of the number the result lay.

Chain of EP2 (P43116 whole entry): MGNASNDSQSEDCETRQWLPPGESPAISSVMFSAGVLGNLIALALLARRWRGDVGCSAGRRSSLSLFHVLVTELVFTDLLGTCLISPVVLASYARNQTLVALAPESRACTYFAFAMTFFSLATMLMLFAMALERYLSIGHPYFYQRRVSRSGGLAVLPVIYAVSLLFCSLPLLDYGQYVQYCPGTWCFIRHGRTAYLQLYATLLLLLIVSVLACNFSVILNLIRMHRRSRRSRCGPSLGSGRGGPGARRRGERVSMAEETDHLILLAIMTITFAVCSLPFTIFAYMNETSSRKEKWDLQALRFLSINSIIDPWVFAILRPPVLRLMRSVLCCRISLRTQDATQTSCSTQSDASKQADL
T1 sequence (P35408 whole entry): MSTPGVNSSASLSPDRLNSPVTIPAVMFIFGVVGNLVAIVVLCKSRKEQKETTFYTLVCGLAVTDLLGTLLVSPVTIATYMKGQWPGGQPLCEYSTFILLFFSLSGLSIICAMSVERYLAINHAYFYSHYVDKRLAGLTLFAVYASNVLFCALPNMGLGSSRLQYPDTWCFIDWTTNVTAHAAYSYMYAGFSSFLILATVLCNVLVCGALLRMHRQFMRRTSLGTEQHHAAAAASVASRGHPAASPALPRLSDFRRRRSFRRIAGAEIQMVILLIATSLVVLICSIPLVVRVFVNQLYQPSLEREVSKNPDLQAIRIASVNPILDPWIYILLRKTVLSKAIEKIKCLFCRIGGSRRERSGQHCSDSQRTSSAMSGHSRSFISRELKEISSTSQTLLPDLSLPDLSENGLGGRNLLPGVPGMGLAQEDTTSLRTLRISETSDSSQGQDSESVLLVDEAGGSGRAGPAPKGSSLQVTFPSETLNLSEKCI

Take `COc1cc(/C=C2\[C@@H]3CC[C@@H](C3)[C@H]2C(=O)NCc2ccc(C(=O)O)cc2)cc(OC)c1` (racemic) [Example 37, 4-(((1S,2R,4R,E)-3-(3,5-Dimethoxybenzylidene)bicyclo[2.2.1]heptane-2-carboxamido)methyl)benzoic Acid]: the affinity in assay [1] corresponds to a Ki of 323 nM. The EC50 in assay [2] is > 10000 nM.

Consider `COc1cc(CC2C3CCC(C3)C2C(=O)NCc2ccc(C(=O)O)cc2)cc(OC)c1` (racemic) [Example 39, 4-((3-(3,5-Dimethoxybenzyl)bicyclo[2.2.1]heptane-2-carboxamido)methyl)benzoic Acid], for which the Ki in assay [1] turned out to be 77 nM. Moreover, the EC50 in assay [2] is > 10000 nM.

For `COc1cc(CC2CCCC2C(=O)NCc2ccc(C(=O)O)cc2)cc(OC)c1` (single isomer, unassigned) [Example 1, 4-((2-(3,5-Dimethoxybenzyl)cyclopentanecarboxamido)methyl)benzoic Acid], the Ki is 6190 nM in assay [3] and 30 nM in assay [1]. Moreover, the “EP4 data cAMP EC50” value in assay [2] is “weak”.

As to `COc1cc(CC2CCCC2C(=O)NCc2ccc(C(=O)O)cc2)cc(OC)c1` (single isomer, unassigned) [Example 2, 4-((2-(3,5-Dimethoxybenzyl)cyclopentanecarboxamido)methyl)benzoic Acid], the Ki in assay [3] was > 10000 nM; in assay [1], 84 nM. The compound further came in with an EC50 in assay [2] of 9 nM.

For the compound `COc1cccc(CC2CCCCC2C(=O)NCc2ccc(C(=O)O)cc2)c1OC` (single isomer, unassigned) [Example 15, 4-((2-(2,3-Dimethoxybenzyl)cyclohexanecarboxamido)methyl)benzoic Acid], the values for the Ki in assay [3] and in assay [1] were 7480 nM and 17 nM, respectively. In addition, the EC50 in assay [2] is > 10000 nM.

`COc1cccc(CC2CCCCC2C(=O)NCc2ccc(C(=O)O)cc2)c1OC` (single isomer, unassigned) [Example 16, 4-((2-(2,3-Dimethoxybenzyl)cyclohexanecarboxamido)methyl)benzoic Acid]: the Ki in assay [3] worked out at 4120 nM; in assay [1], 114 nM. Besides, the EC50 in assay [2] is > 10000 nM.

As for `COc1ccc(OC)c(CC2CCCCC2C(=O)NCc2ccc(C(=O)O)cc2)c1` (single isomer, unassigned) [Example 18, 4-((2-(2,5-Dimethoxybenzyl)cyclohexanecarboxamido)methyl)benzoic Acid], the Ki in assay [3] is 462 nM; in assay [1] it was 16 nM. Moreover, the half-maximal effective concentration (EC50) in assay [2] was > 10000 nM.

`COc1ccc(OC)c(CC2CCCCC2C(=O)NCc2ccc(C(=O)O)cc2)c1` (single isomer, unassigned) [Example 19, 4-((2-(2,5-Dimethoxybenzyl)cyclohexanecarboxamido)methyl)benzoic Acid]: the Ki in assay [3] amounted to 393 nM; in assay [1], 2 nM. The compound further showed a 50% effective concentration (EC50) in assay [2] of 0.2 nM.

`COc1ccc(CC2CCCCC2C(=O)NCc2ccc(C(=O)O)cc2)cc1OC` (single isomer, unassigned) [Example 22, 4-((2-(3,4-Dimethoxybenzyl)cyclohexanecarboxamido)methyl)benzoic Acid] showed a Ki in assay [1] of 4 nM. For the same compound, the EC50 in assay [2] is > 10000 nM.

`COc1ccc(CC2CCCCC2C(=O)NCc2ccc(C(=O)O)cc2)cc1OC` (single isomer, unassigned) [Example 23, 4-((2-(3,4-Dimethoxybenzyl)cyclohexanecarboxamido)methyl)benzoic Acid]: the inhibition constant Ki in assay [1] is 8 nM. Further, the concentration for a half-maximal effect (EC50) in assay [2] was > 10000 nM.

`O=C(O)c1ccc(CNC(=O)C2CCCCC2Cc2ccccc2)cc1` (single isomer, unassigned) [Example 25, 4-((2-Benzylcyclohexanecarboxamido)methyl)benzoic Acid]: the Ki in assay [3] came to 4950 nM; in assay [1], 58 nM. Moreover, the EC50 in assay [2] is > 10000 nM.

Regarding `O=C(O)c1ccc(CNC(=O)C2CCCCC2Cc2ccccc2)cc1` (single isomer, unassigned) [Example 26, 4-((2-Benzylcyclohexanecarboxamido)methyl)benzoic Acid], the Ki worked out at 2920 nM in assay [3] and 116 nM in assay [1]. The compound further came in with an EC50 in assay [2] of 35 nM.

Regarding `COc1cccc(CC2CCCCC2C(=O)NCc2ccc(C(=O)O)cc2)c1` (single isomer, unassigned) [Example 28, 4-((2-(3-Methoxybenzyl)cyclohexanecarboxamido)methyl)benzoic Acid], the Ki came to 2350 nM in assay [3] and 4 nM in assay [1]. Moreover, in assay [2], the EC50 was > 10000 nM.

Consider `COc1cccc(CC2CCCCC2C(=O)NCc2ccc(C(=O)O)cc2)c1` (single isomer, unassigned) [Example 29, 4-((2-(3-Methoxybenzyl)cyclohexanecarboxamido)methyl)benzoic Acid], for which the figures for the Ki in assay [3] and in assay [1] were 2570 nM and 19 nM, respectively. In addition, the EC50 in assay [2] was found to be 4 nM.

`COc1ccccc1CC1CCCCC1C(=O)NCc1ccc(C(=O)O)cc1` (single isomer, unassigned) [Example 31, 4-((2-(2-Methoxybenzyl)cyclohexanecarboxamido)methyl)benzoic Acid]: the results for the Ki in assay [3] and in assay [1] were 994 nM and 5 nM, respectively. Besides, in assay [2], the EC50 is > 10000 nM.

As to `COc1ccccc1CC1CCCCC1C(=O)NCc1ccc(C(=O)O)cc1` (single isomer, unassigned) [Example 32, 4-((2-(2-Methoxybenzyl)cyclohexanecarboxamido)methyl)benzoic Acid], the Ki is 1320 nM in assay [3] and 7 nM in assay [1]. Also, the EC50 in assay [2] was > 10000 nM.

`COc1ccc(CC2CCCCC2C(=O)NCc2ccc(C(=O)O)cc2)cc1` (single isomer, unassigned) [Example 34, 4-((2-(4-Methoxybenzyl)cyclohexanecarboxamido)methyl)benzoic Acid]: the Ki was > 10000 nM in assay [3] and 44 nM in assay [1]. Moreover, the EC50 in assay [2] is > 10000 nM.

`CN(Cc1ccc(C(=O)O)cc1)C(=O)C1=C(Cc2cccc(C(F)(F)F)c2)CCC1` [Example 7, 4-((N-Methyl-2-(3-(trifluoromethyl)benzyl)cyclopent-1-enecarboxamido)methyl)benzoic Acid] gave a Ki in assay [1] of 1570 nM.

`COc1ccc(CC2=C(C(=O)NCc3ccc(C(=O)O)cc3)CCCC2)cc1OC` [Example 21, 4-((2-(3,4-Dimethoxybenzyl)cyclohex-1-enecarboxamido)methyl)benzoic Acid]: in assay [1], the Ki is 4 nM. In assay [2], the concentration for a half-maximal effect (EC50) is > 10000 nM.

As to `COc1cc(CC2=C(C(=O)NCc3ccc(C(=O)O)cc3)C3CCC2C3)cc(OC)c1` (centres unmarked) [Example 36, 4-((3-(3,5-Dimethoxybenzyl)bicyclo[2.2.1]hept-2-ene-2-carboxamido)methyl)benzoic Acid], in assay [1], the Ki turned out to be 1010 nM.

Compound `COc1cc(CC2C3CCC(C3)C2C(=O)NCc2ccc(C(=O)O)cc2)cc(OC)c1` (centres unmarked) [Example 38, 4-((3-(3,5-Dimethoxybenzyl)bicyclo[2.2.1]heptane-2-carboxamido)methyl)benzoic Acid] came in with a Ki in assay [1] of 402 nM. Also, the EC50 in assay [2] is > 10000 nM.
